Assay results from patent US20160213684A1, “SOLID DISPERSION OF A SELECTIVE MODULATOR OF THE PROGESTERONE RECEPTOR” (LABORATOIRE HRA-PHARMA, priority 2012, published 2016).

What was measured:
[1] = in vitro dissolution test (paddle dissolution device, hard gelatin capsule with 30 mg UPA); assay type: physicochemical; conditions: for Percentages of UPA released, expressed relative to the initial amount of UPA contained per capsule: 900 ml medium at gastric pH, 0.1% SDS, 37°C, 50 rpm, mean of 3 experiments
Method: The in vitro dissolution test can be carried out using any commercially available dissolution device comprising paddles. Example 1 hereinafter presents implementing conditions for determining the in vitro dissolution rate of a solid dispersion according to the invention. Briefly, an amount of solid dispersion representing 30 mg of active ingredient is placed in a gelatin capsule. This gel capsule is then placed in 900 ml of a medium buffered at gastric pH, comprising 0.1% of SDS, at 37±0.5° C., and subjected to stirring at 50 revolutions per minute (rpm) (speed of rotation of the paddles of the dissolution device). The dissolution of the active ingredient in the medium can be monitored by spectrophotometry, preferably at the maximum wavelength of absorbance. A gastric pH is typically a pH of 1 to 3.
For each solid dispersion obtained by means of the “solvent evaporation” method (§1.b) above), hard gelatin capsules containing an amount of solid dispersion corresponding to 30 mg of UPA per capsule were prepared.
The dissolution profiles were obtained as follows:
Each capsule containing a solid dispersion was placed in a bowl of the paddle dissolution device containing 900 ml of a dissolution medium. The dissolution medium is an aqueous solution buffered at gastric pH and comprising 0.1% by weight of SDS. The conditions for carrying out the in vitro dissolutions are the following: • Paddle rotation speed: 50 revolutions per minute (rpm); • Temperature: 37° C.±0.5° C.
The dissolution of the UPA was monitored by spectrophotometry.
By way of control experiment, a gelatin capsule containing 30 mg of micronized ulipristal acetate was used. For each solid dispersion evaluated, the dissolution experiment was reproduced 3 times.

[2] = single dose of 30 mg, within 120 hours following unprotected or poorly protected sexual intercourse; cited from earlier work
[3] = tested on: uterine fibromas; conditions: chronic administration, 5 mg or 10 mg per day; cited from earlier work

## CC(=O)O[C@]1(C(C)=O)CCC2C3CCC4=CC(=O)CCC4=C3[C@@H](c3ccc(N(C)C)cc3)C[C@@]21C (stereo partly drawn) [Micronized UPA, 17α-acetoxy-11β-[4-(N,N-dimethylamino)phenyl]-19-norpregna-4,9-diene-3,20-dione]
[1]; t=20 min as stated in the text, capsule
  percentage of ulipristal acetate released into the medium: approximately 42%
[1]; time 0 min
  Percentages of UPA released, expressed relative to the initial amount of UPA contained per capsule: 0%
[1]; time 1 min
  Percentages of UPA released, expressed relative to the initial amount of UPA contained per capsule: 0.23%
[1]; time 5 min
  Percentages of UPA released, expressed relative to the initial amount of UPA contained per capsule: 5.69%
[1]; time 7.5 min
  Percentages of UPA released, expressed relative to the initial amount of UPA contained per capsule: 15.28%
[1]; time 10 min
  Percentages of UPA released, expressed relative to the initial amount of UPA contained per capsule: 21.73%
[1]; time 15 min
  Percentages of UPA released, expressed relative to the initial amount of UPA contained per capsule: 29.46%
[1]; time 20 min
  Percentages of UPA released, expressed relative to the initial amount of UPA contained per capsule: 35.2%
[1]; time 30 min
  Percentages of UPA released, expressed relative to the initial amount of UPA contained per capsule: 42.14%
[1]; time 45 min
  Percentages of UPA released, expressed relative to the initial amount of UPA contained per capsule: 49.98%
[1]; time 60 min
  Percentages of UPA released, expressed relative to the initial amount of UPA contained per capsule: 55.62%
[2]
  prevention of unwanted pregnancy: makes it possible to prevent an unwanted pregnancy
[3]
  symptoms associated with uterine fibromas: significantly reduce the symptoms associated with uterine fibromas
  therapeutic benefit versus the reference treatment leuprolide acetate: greater than that of the reference treatment
